Source: patent US8883801B2, “Substituted pyrazolo[1,5-a]pyrimidines as mTOR inhibitors” (Merck Sharp & Dohme Corp., priority 2010, dated 2014)
Read-outs that look alike come from different tables or passages of the source.

Legend:
[1] = system: mTORC1 activity: phosphorylated 4E-BP1 Thr37/46 (p4E-BP1 Thr37/46) in PC3 cells; assay: mTOR target engagement assay, immunofluorescent cell-based, mTORC1 readout; settings: 90 min treatment, read-out: P4EBP1 IC50
Experimental: The target engagement of mTOR kinase inhibitors was evaluated using an immunofluorescent cell-based assay. In this assay, inhibition of mTORC1 activity was measured by the reduction in the level of phosphorylated 4E-BP1Thr37/46 (p4E-BP1 Thr37/46), and inhibition of mTORC2 activity was measured by the reduction of phosphorylated AKTSer473 (pAKT S473).
PC3 cells (prostate tumor cell-line that contains a mutation in the tumor suppressor PTEN, that promotes the phosphorylation and activation of AKT and 4E-BP1) were used in the immunofluorescence assay. PC3 cells were seeded on 384 well plates (black clear bottom, Matrix #4332) overnight. PC3 cells were then treated with 40 μl of the serially diluted test compounds (in 5% fetal bovine serum, F12 medium containing 0.25% DMSO) for ninety minutes at 37° C. The test compound solution was removed, and the plates were washed gently two times with 25 μl phosphate buffered saline (PBS). The cells were fixed by adding 25 μl of Prefer reagent (from Anatech LTD, Cat#414, a glyoxal fixative for fixing proteins within a cell) for sixty minutes followed by three washes with PBS. 5% Goat serum in PBS/0.3% Triton was used to block non-specific binding (60 minutes).
The primary antibodies targeting pAKT S473 and p4E-BP1 Thr37/46 were diluted into PBS/0.3% Triton and incubated with the cells overnight at 4° C. The antibodies targeting pAKTS473 (Cat#4085, Cell signaling) and p4E-BP1 Thr37/46 (Cat#2855, Cell signaling) were used at a 1:100 dilution. Plates were washed three times with PBS/0.1% Tween 20 before adding the secondary antibody at a 1:200 dilution. (goat anti-rabbit containing a fluorescent label, Alexa Fluor 488, Cat#A11008, Invitrogen) in PBS/0.3% Triton for 60 minutes.
Finally, the plates were washed three times with PBS/0.1% Tween 20 and the fluorescent intensity was read using an Analyst HT from Molecular Devices. The fluorescent intensity values from the serially diluted compound treatment group were analyzed using the Xlfit 4 program ([…]) (Formula 205: Y=Bottom+(Top-Bottom)/(1+(IC50/X)^Hillslope) to generate the IC50 value. Where Top is the maximum signal without Compound (+DMSO only) and Bottom represents maximum inhibition. Y is the fluorescence at some compound concentration. The control used to determine the fluorescent intensities for 100% pAKT S473 or 100% phosphorylated p4E-BP1 Thr37/46 were measured from untreated wells that contained only DMSO, instead of test compound.

[2] = system: mTORC2 activity: phosphorylated AKT Ser473 (pAKT S473) in PC3 cells; assay: mTOR target engagement assay, immunofluorescent cell-based, mTORC2 readout; settings: 90 min treatment
How it was run: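 Read-out is immunofluorescence intensity, normalized to DMSO-only wells and fitted to a sigmoidal Hill equation for IC50. The mTORC1 arm probes phospho-4E-BP1 Thr37/46 and the mTORC2 arm phospho-AKT Ser473.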

human mTOR enzyme = human mTOR enzyme (Homo sapiens, UniProt P42345); assay: HTRF mTOR enzyme (kinase) assay; format: biochemical; settings: 5 μM ATP, 0.2 μM GST-S6K, read-out: hMTOR IC50
[3] = Homo sapiens, PC-3, 1.5 h, rated class

human mTOR enzyme, sequence (P42345 1360-2549 limits assumed): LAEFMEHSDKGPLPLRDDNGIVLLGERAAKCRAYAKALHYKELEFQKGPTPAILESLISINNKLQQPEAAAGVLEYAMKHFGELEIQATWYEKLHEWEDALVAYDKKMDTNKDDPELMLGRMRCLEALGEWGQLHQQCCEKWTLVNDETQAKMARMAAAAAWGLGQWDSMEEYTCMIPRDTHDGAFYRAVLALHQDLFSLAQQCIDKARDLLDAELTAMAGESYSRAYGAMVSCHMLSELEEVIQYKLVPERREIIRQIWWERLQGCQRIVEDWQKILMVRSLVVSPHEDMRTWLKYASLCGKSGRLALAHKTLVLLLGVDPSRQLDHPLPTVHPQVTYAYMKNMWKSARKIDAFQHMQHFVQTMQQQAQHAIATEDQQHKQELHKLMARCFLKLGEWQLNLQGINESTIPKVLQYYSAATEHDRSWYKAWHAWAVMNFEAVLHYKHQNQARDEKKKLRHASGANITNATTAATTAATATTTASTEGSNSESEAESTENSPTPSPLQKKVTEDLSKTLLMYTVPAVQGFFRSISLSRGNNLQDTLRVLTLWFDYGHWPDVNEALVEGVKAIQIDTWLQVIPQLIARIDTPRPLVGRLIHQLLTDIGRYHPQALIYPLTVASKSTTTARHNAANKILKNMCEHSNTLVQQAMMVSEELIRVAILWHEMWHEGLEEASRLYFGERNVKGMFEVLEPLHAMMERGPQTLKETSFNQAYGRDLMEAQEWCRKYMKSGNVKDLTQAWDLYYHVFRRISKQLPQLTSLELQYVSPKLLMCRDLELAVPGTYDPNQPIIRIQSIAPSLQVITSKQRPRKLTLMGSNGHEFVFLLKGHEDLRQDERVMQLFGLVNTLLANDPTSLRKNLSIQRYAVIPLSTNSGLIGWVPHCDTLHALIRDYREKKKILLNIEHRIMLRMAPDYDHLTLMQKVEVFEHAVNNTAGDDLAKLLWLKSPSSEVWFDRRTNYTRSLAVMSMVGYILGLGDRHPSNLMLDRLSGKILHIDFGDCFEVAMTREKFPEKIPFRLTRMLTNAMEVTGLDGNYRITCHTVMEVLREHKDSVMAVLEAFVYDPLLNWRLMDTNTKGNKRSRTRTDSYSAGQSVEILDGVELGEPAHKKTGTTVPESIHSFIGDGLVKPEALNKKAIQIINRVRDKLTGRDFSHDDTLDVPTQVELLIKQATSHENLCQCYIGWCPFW

Row | IC50 [1, 3] | IC50 [2, 3] | IC50 (human mTOR enzyme; rated class) | SMILES | further results
1 | – | 1 to 100 nM | 1 to 100 nM | CC(=O)c1c(N)n2ncc(-c3ccc(-c4ccccc4)nc3)c2nc1[C@H]1CC[C@](O)(CCO)CC1 [Compound 159, 1-(7-amino-5-((1S,4S)-4-hydroxy-4-(2-hydroxyethyl)-cyclohexyl)-3-(6-phenylpyridin-3-yl)pyrazolo[1,5-a]pyrimidin-6-yl)ethanone] | –
2 | – | 1000 to 2000 nM | 1 to 100 nM | COC[C@]1(O)CC[C@@H](c2nc3c(-c4ccc(-c5ccccc5)nc4)cnn3c(N)c2Br)CC1 [Compound 164, (1S,4S)-4-(7-amino-6-bromo-3-(6-phenylpyridin-3-yl)pyrazolo[1,5-a]pyrimidin-5-yl)-1-(methoxymethyl)cyclohexanol] | –
3 | – | 1000 to 2000 nM | 1 to 100 nM | COCC1(O)CCC(c2nc3c(-c4cnc5ccc(F)cc5c4)cnn3c(N)c2Br)CC1 (stereo not shown) [Compound 165, 4-(7-amino-6-bromo-3-(6-fluoroquinolin-3-yl)pyrazolo[1,5-a]pyrimidin-5-yl)-1-(methoxymethyl)cyclohexanol] | –
4 | – | 1000 to 2000 nM | 1 to 100 nM | COCCOC[C@]1(CO)CC[C@H](c2nc3c(-c4ccc(-c5ccccc5)nc4)cnn3c(N)c2Br)CC1 [Compound 168, ((1S,4S)-4-(7-amino-6-bromo-3-(6-phenylpyridin-3-yl)pyrazolo[1,5-a]pyrimidin-5-yl)-1-((2-methoxyethoxy)-methyl)cyclohexyl)-methanol] | –
5 | – | 2000 to 5000 nM | 1 to 100 nM | COCCOC[C@]1(CO)CC[C@@H](c2nc3c(-c4ccc(-c5ccccc5)nc4)cnn3c(N)c2Br)CC1 [Compound 169, ((1R,4R)-4-(7-amino-6-bromo-3-(6-phenylpyridin-3-yl)pyrazolo[1,5-a]pyrimidin-5-yl)-1-((2-methoxyethoxy)-methyl)cyclohexyl)-methanol] | –
6 | – | 1000 to 2000 nM | 1 to 100 nM | COCC1(CO)CCC(c2nc3c(-c4ccc(-c5ccccc5)nc4)cnn3c(N)c2C(C)=O)CC1 (stereo not shown) [Compound 170, 1-(7-amino-5-(4-(hydroxymethyl)-4-(methoxymethyl)-cyclohexyl)-3-(6-phenylpyridin-3-yl)pyrazolo[1,5-a]pyrimidin-6-yl)ethanone] | –
7 | – | 2000 to 5000 nM | 1 to 100 nM | COc1ccc(-c2ccc(-c3cnn4c(N)c(C(C)=O)c(C5CCC(CO)(OC)CC5)nc34)cn2)cn1 (stereo not shown) [Compound 171, 1-(7-amino-5-(4-(hydroxymethyl)-4-methoxycyclohexyl)-3-(6′-methoxy-2,3′-bipyridin-5-yl)pyrazolo[1,5-a]pyrimidin-6-yl)ethanone] | –
8 | – | 1 to 100 nM | 1 to 100 nM | CC(=O)c1c(C2CCC(CO)(CO)CC2)nc2c(-c3ccc(-c4ccccc4)nc3)cnn2c1N [Compound 172, 1-(7-amino-5-(4,4-bis(hydroxymethyl)-cyclohexyl)-3-(6-phenylpyridin-3-yl)pyrazolo[1,5-a]pyrimidin-6-yl)ethanone] | –

The remaining lines, values behind:

Row | SMILES | IC50 [1, 3] | IC50 [2, 3] | IC50 (human mTOR enzyme; rated class) | further results
9 | CC(=O)c1c(C2CCC(O)(CO)CC2)nc2c(-c3ccc(-c4cscn4)nc3)cnn2c1N (single isomer, unassigned) [Compound 144, 1-(7-amino-5-(4-hydroxy-4-(hydroxymethyl)-cyclohexyl)-3-(6-(thiazol-4-yl)pyridin-3-yl)pyrazolo[1,5-a]pyrimidin-6-yl)ethanone] | 100 to 1000 nM | 100 to 1000 nM | 1 to 100 nM | –
10 | C[C@]1(C(=O)O)CC[C@H](c2nc3c(-c4ccc(-c5ccccc5)nc4)cnn3c(N)c2Br)CC1 [Compound 1, (1R,4R)-4-(7-amino-6-bromo-3-(6-phenylpyridin-3-yl)pyrazolo[1,5-a]pyrimidin-5-yl)-1-methylcyclohexanecarboxylic acid] | – | – | – | IC50 ([1]; numeric value): 850 nM; IC50 ([2]; numeric value): 275 nM; IC50 (human mTOR enzyme; numeric value): 1.33 nM
11 | CC(=O)c1c(N)n2ncc(-c3ccc(-c4ccccc4)nc3)c2nc1[C@H]1CC[C@](C)(C(=O)O)CC1 [Compound 15, (1R,4R)-4-(6-acetyl-7-amino-3-(6-phenylpyridin-3-yl)pyrazolo[1,5-a]pyrimidin-5-yl)-1-methylcyclohexanecarboxylic acid] | 100 to 1000 nM | 100 to 1000 nM | 1 to 100 nM | –
12 | COC[C@]1(C(=O)O)CC[C@H](c2nc3c(-c4ccc(-c5ccccc5)nc4)cnn3c(N)c2C(C)=O)CC1 [Compound 18, (1R,4R)-4-(6-acetyl-7-amino-3-(6-phenylpyridin-3-yl)pyrazolo[1,5-a]pyrimidin-5-yl)-1-(methoxymethyl)-cyclohexane-carboxylic acid] | 100 to 1000 nM | 1 to 100 nM | 1 to 100 nM | –
13 | C[C@]1(C(=O)O)CC[C@H](c2nc3c(-c4ccc(-c5ccccc5)nc4)cnn3c(N)c2C#N)CC1 [Compound 25, (1R,4R)-4-(7-amino-6-cyano-3-(6-phenylpyridin-3-yl)pyrazolo[1,5-a]pyrimidin-5-yl)-1-methylcyclohexanecarboxylic acid] | 100 to 1000 nM | 100 to 1000 nM | 1 to 100 nM | –
14 | C[C@]1(C(=O)O)CC[C@@H](c2nc3c(-c4ccc(-c5ccccc5)nc4)cnn3c(N)c2C#N)CC1 [Compound 26, (1S,4S)-4-(7-amino-6-cyano-3-(6-phenylpyridin-3-yl)pyrazolo[1,5-a]pyrimidin-5-yl)-1-methylcyclohexanecarboxylic acid] | – | – | 1 to 100 nM | IC50 ([1]; rated class): 100 to 1000 nM; IC50 ([2]; rated class): 1 to 100 nM
15 | CO[C@]1(C(=O)O)CC[C@H](c2nc3c(-c4ccc(-c5ccccc5)nc4)cnn3c(N)c2Br)CC1 [Compound 28, (1S,4S)-4-(7-amino-6-bromo-3-(6-phenylpyridin-3-yl)pyrazolo[1,5-a]pyrimidin-5-yl)-1-methoxycyclohexanecarboxylic acid] | 100 to 1000 nM | 1 to 100 nM | 1 to 100 nM | –
16 | CO[C@]1(C(=O)O)CC[C@@H](c2nc3c(-c4ccc(-c5ccccc5)nc4)cnn3c(N)c2Br)CC1 [Compound 29, (1R,4R)-4-(7-amino-6-bromo-3-(6-phenylpyridin-3-yl)pyrazolo[1,5-a]pyrimidin-5-yl)-1-methoxycyclohexane-carboxylic acid] | 100 to 1000 nM | 100 to 1000 nM | 1 to 100 nM | –
17 | CO[C@]1(C(=O)O)CC[C@@H](c2nc3c(-c4cnn(-c5ccccc5)c4)cnn3c(N)c2Br)CC1 [Compound 30, (1R,4R)-4-(7-amino-6-bromo-3-(1-phenyl-1H-pyrazol-4-yl)pyrazolo[1,5-a]pyrimidin-5-yl)-1-methoxycyclohexane-carboxylic acid] | 100 to 1000 nM | 100 to 1000 nM | 1 to 100 nM | –
18 | CO[C@]1(C(=O)O)CC[C@H](c2nc3c(-c4cnn(-c5ccccc5)c4)cnn3c(N)c2Br)CC1 [Compound 31, (1S,4S)-4-(7-amino-6-bromo-3-(1-phenyl-1H-pyrazol-4-yl)pyrazolo[1,5-a]pyrimidin-5-yl)-1-methoxycyclohexane-carboxylic acid] | 100 to 1000 nM | 1 to 100 nM | 1 to 100 nM | –
19 | COC(=O)c1cc(-c2ccc(-c3cnn4c(N)c(C(C)=O)c([C@H]5CC[C@@](O)(CO)CC5)nc34)cn2)ccc1OC [Compound 153, methyl 5-(5-(6-acetyl-7-amino-5-((1R,4R)-4-hydroxy-4-(hydroxymethyl)-cyclohexyl)-pyrazolo-[1,5-a]pyrimidin-3-yl)pyridin-2-yl)-2-methoxybenzoate] | – | 5000 to 15000 nM | 1 to 100 nM | –
20 | COc1ccc(-c2ccc(-c3cnn4c(N)c(C(C)=O)c(C5CCC(O)(CO)CC5)nc34)cn2)cc1C(=O)O (stereo not shown) [Compound 155, 5-(5-(6-acetyl-7-amino-5-(4-hydroxy-4-(hydroxymethyl)-cyclohexyl)-pyrazolo-[1,5-a]pyrimidin-3-yl)pyridin-2-yl)-2-methoxybenzoic acid] | – | 5000 to 15000 nM | 1 to 100 nM | –
21 | CC(=O)c1c(C2CCC(O)(CO)CC2)nc2c(-c3ccc(-c4cncs4)nc3)cnn2c1N (stereo not shown) [Compound 157, 1-(7-amino-5-(4-hydroxy-4-(hydroxymethyl)-cyclohexyl)-3-(6-(thiazol-5-yl)pyridin-3-yl)pyrazolo[1,5-a]pyrimidin-6-yl)ethanone] | – | 2000 to 5000 nM | 1 to 100 nM | –
